# Assay results taken from US6346514B1, “Pharmaceutical lysine-containing polypeptide compositions and methods of use thereof” (priority 1991, dated 2002).
# Key:
# [1] = tested on: blood lymphoid cells and immune organs after irradiation; experiment: Effect on immune system of irradiated guinea pigs; type: in vivo
# Procedure: Twenty-two male guinea pigs were used in the following test.
# Guinea pigs were exposed to irradiation in a total. does 1Gy.target-skin distance—70 cm; time of exposure—2′48″ Device: 180 kV; 15 mA; filter 0.5 Cu Treatment: i.m. single daily 1 microg. HM897 per kg for 5 days.
# Treatment of controls: normal saline 0.5 ml i.m. single daily for 5 days.
# Leukocyte and lymphocyte levels were measured in peripheral blood on the 7th, 14th, 21st, 36th and 44th day after irradiation.
# In a second test 40 male guinea pigs were used, and the same regimen was followed.
# There were two controls—irradiated and non-irradiated. Parameters were evaluated on the 8th and 21st days after irradiation. Tested parameters: clinical blood examination, non-specific resistance by lysosomal cationic test; “active” T-lymphocytes and total T-lymphocytes (E-RFC), B-lymphocytes (EAC-RFC) were measured in blood, thymus, lymph nodes, spleen and red bone marrow. Blood lymphocyte functional activity was evaluated by leukocyte migration inhibition (LMI) with ConA. Histological examinations of thymus, spleen, lymph nodes, bone marrow and adrenals were carried out.
# B-lymphocytes = experiment: Ig-receptor expression on B-lymphocytes of patients with secondary immunodeficiency; type: cell-based, human; conditions: concentration 1 microg/ml
# Procedure: The number of cells carrying Ig-receptors before and after incubation with the peptide has been measured (by means for FITC-labelled sera against human Ig).
# posthemorrhagic anemia = experiment: Erythropoietic effect in posthemorrhagic anemia; type: in vivo, mice
# Procedure: (§1) This test was designed to study posthemorrhagic anemia (acute blood loss caused by taking blood from retroorbital sinus), and hemolytic anemia induced by phenylhydrazine hydrochloride (120 mg active ingredients/kg 30 Balb/c-mice and 30 CBA-mice). HM897 was injected intraperitoneally in doses of 100 and 150 microg per kg, 3 hours and 1 day after intervention modelling anemia, for 5 days. Tester parameters: RBC, leukocytes, reticulocytes, Hb, Hct
# [2] = tested on: hemodepression induced by 5-fluorouracil; experiment: Hemostimulating effect in 5-fluorouracil-induced hemodepression; type: in vivo, CBA-mice
# Procedure: The test was designed to study hemodepression induced by 5-fluorouracil injected i.p. in a dose 175 mg per kg (172 male CBA-mice). Treatment: peptide HM897 was administered i.p. starting from 4th day after 5-FU injection in doses 0.00001, 0.001, 0.01, 1.0 mg/kg for 5 days. Treatment of controls: normal saline i.p. for 5 days. Tested parameters: peripheral blood count and bone marrow differential count.
# [3] = tested on: guinea-pig myelokaryocytes; experiment: Colony-forming activity of macrophage precursors; type: cell-based; conditions: tested 1.0 to 0.0000001 microg/ml
# Procedure: This test is designed to study macrophage precursors. Cultured cells used were guinea-pig myelokaryocytes. HM897 was added to cell culture in concentrations 1.0, 0.001, 0.00001 and 0.0000001 microg/ml.
# [4] = tested on: lymphoid cells in blood, thymus, lymph nodes, spleen and red bone marrow; experiment: Effect on immune system of healthy guinea pigs; type: in vivo
# Procedure: Forty male guinea pigs were used in the following test. Most of the animals were treated daily with a single dose (i.m.) of Thr-Ala-Glu-Glu-Lys (SEQ ID NO:34) (HM897) […] for five days. Control animals were treated with single daily doses of 0.5 ml (i.m.) of normal saline.
# Tested parameters: clinical blood examination, non-specific resistance by lysosomal cationic test; “active” T-lymphocytes and total T-lymphocytes (E-RFC), B-lymphocytes (EAC-RFC) were measured in blood, thymus, lymph nodes, spleen and red bone marrow. […] Blood lymphocyte functional activity was evaluated by leukocyte migration inhibition (LMI) with ConA. Histological examinations of thymus, spleen, lymph nodes, bone marrow and adrenals were carried out. All of these indicia were measured on 10th and 20th days after onset of the treatment.
# [5] = tested on: hemolytic anemia induced by phenylhydrazine hydrochloride; experiment: Erythropoietic effect in hemolytic phenylhydrazine-induced anemia; type: in vivo, mice; conditions: 3rd day of administration
# Procedure: as §1
substance,measurement,setting,value
Thr-Ala-Glu-Glu-Lys (TAEEK) [HM897],leukocyte and lymphocyte levels in peripheral blood,"[1]; irradiation 1 Gy, 1 microg per kg i.m. daily for 5 days, days 7-44",restoration of leukocyte and lymphocyte levels
same,peripheral blood lymphocytes and neutrophil functional activity,"[1]; second test, irradiated animals",restored peripheral blood lymphocytes and neutrophil functional activity
same,T-lymphocyte maturation and migration,"[1]; second test, irradiated animals, early terms of observation",accelerates T-lymphocyte maturation and their migration to peripheral immune organs
same,proliferation and differentiation in organs of the immune system,"[1]; second test, irradiated animals, later stage of the study",enhancement of proliferation and differentiation in both central and peripheral organs of the immune system
same,cells carrying Ig-receptors of different types,B-lymphocytes,significant increase
same,Hb level and plasma/formed elements ratio restoration,posthemorrhagic anemia,more rapid
same,most effective dose,posthemorrhagic anemia; doses 100 and 150 i.p.,0.15 mg/kg
same,RBC count,posthemorrhagic anemia; on the 6th day after administration,7.1 mln/ml
same,restoration of hemopoiesis,"[2]; 5-FU hemodepression, CBA-mice",promotes active restoration of hemopoiesis
same,dose from which the peptide was active,[2]; i.p. for 5 days from 4th day after 5-FU 175 mg per kg,≥ 0.001 mg/kg
same,concentration from which macrophage precursors colony-forming activity is stimulated,[3],≥ 0.0000001 µg/mL
same,lymphocyte stimulation,[4]; 10th day,predominant T-lymphocyte stimulation
same,"mitotic activity in lymph nodes, spleen and bone marrow",[4]; 10th day after onset of administration,increased level of mitotic activity
same,lymphocyte stimulation,[4]; 20th day,both T- and B-lymphocytes
same,lymphoid cells proliferation and differentiation in thymus and bone marrow,"[4]; healthy guinea pigs, i.m. single daily dose for five days",stimulates lymphoid cells proliferation and differentiation in thymus and bone marrow
same,erythrocytes,[5],7.2 mln/ml
